Measurements reported in PubChem BioAssay AID1963833 (Molecular Pharmacology Branch, DTP, NCI, 2024).

Test system: 883617-216-R-J1-PDC complex spheroid viability
Test: Anticancer human tumor 883617-216-R-J1-PDC patient-derived bladder carcinoma cell line growth inhibition [POLQ]
Settings: for IC50: curve of first compound; for viability, T/C: stronger effect = lower value
Procedure, shortened: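 PDC + HUVEC + MSC complex spheroids; POLQ inhibitors ± partner drugs; top conc. at/near clinical Cmax, else 10 microM (SN-38 1 microM), half-log dilutions; 37 degrees C, 5% CO2.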

[1] = second compound 0.0316 µM, first compound 0.0316 µM
[2] = second compound 0.0316 µM, first compound 0.1 µM
[3] = second compound 0.0316 µM, first compound 0.316 µM
[4] = second compound 0.0316 µM, first compound 1 µM
[5] = second compound 0.0316 µM, first compound 3.16 µM
[6] = second compound 0.0316 µM, first compound 10 µM
[7] = second compound 0.1 µM, first compound 0.0316 µM
[8] = second compound 0.1 µM, first compound 0.1 µM
[9] = second compound 0.1 µM, first compound 0.316 µM
[10] = second compound 0.1 µM, first compound 1 µM
[11] = second compound 0.1 µM, first compound 3.16 µM
[12] = second compound 0.1 µM, first compound 10 µM
[13] = second compound 0.316 µM, first compound 0.0316 µM
[14] = second compound 0.316 µM, first compound 0.1 µM
[15] = second compound 0.316 µM, first compound 0.316 µM
[16] = second compound 0.316 µM, first compound 1 µM
[17] = second compound 0.316 µM, first compound 3.16 µM
[18] = second compound 0.316 µM, first compound 10 µM
[19] = second compound 1 µM, first compound 0.0316 µM
[20] = second compound 1 µM, first compound 0.1 µM
[21] = second compound 1 µM, first compound 0.316 µM
[22] = second compound 1 µM, first compound 1 µM
[23] = second compound 1 µM, first compound 3.16 µM
[24] = second compound 1 µM, first compound 10 µM
[25] = second compound 3.16 µM, first compound 0.0316 µM
[26] = second compound 3.16 µM, first compound 0.1 µM
[27] = second compound 3.16 µM, first compound 0.316 µM
[28] = second compound 3.16 µM, first compound 1 µM
[29] = second compound 3.16 µM, first compound 3.16 µM
[30] = second compound 3.16 µM, first compound 10 µM
[31] = second compound 10 µM, first compound 0.0316 µM
[32] = second compound 10 µM, first compound 0.1 µM
[33] = second compound 10 µM, first compound 0.316 µM
[34] = second compound 10 µM, first compound 1 µM
[35] = second compound 10 µM, first compound 3.16 µM
[36] = second compound 10 µM, first compound 10 µM
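Note: spheroids exposed to compounds for seven days before readout.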
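Throughout, for viability, T/C: 100% = DMSO vehicle control viability.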

**Q.** Which IC50 (second compound 0.0316 µM) does the source give for COc1cc(C2c3cc4c(cc3C(OC3OC5COC(C)OC5C(O)C3O)C3COC(=O)C23)OCO4)cc(OC)c1O (stereo unspecified) + Cc1cccc(N(C)C(=O)C2C(O)CCN2c2nc(C)cc(C(F)(F)F)c2C#N)c1 here?
**A.** > 10 µM

**Q.** What about the IC50 (second compound 0.1 µM) of the same compound?
**A.** 6.38 µM

**Q.** And the IC50 (second compound 0.316 µM)?
**A.** > 10 µM

**Q.** What about the IC50 (second compound 1 µM) of the same compound?
**A.** > 10 µM

**Q.** What about the IC50 (second compound 3.16 µM) of the same compound?
**A.** > 10 µM

**Q.** What about the IC50 (second compound 10 µM) of the same compound?
**A.** > 10 µM

**Q.** What about the viability, T/C [1] of the same compound?
**A.** 98.5%

**Q.** And the viability, T/C [2]?
**A.** 95.8%

**Q.** And the viability, T/C [3]?
**A.** 75.2%

**Q.** What about the viability, T/C [4] of the same compound?
**A.** 66%

**Q.** And the viability, T/C [5]?
**A.** 64%

**Q.** And the viability, T/C [6]?
**A.** 54.8%

**Q.** What about the viability, T/C [7] of the same compound?
**A.** 109%

**Q.** What about the viability, T/C [8] of the same compound?
**A.** 97.8%

**Q.** What about the viability, T/C [9] of the same compound?
**A.** 86.3%

**Q.** What about the viability, T/C [10] of the same compound?
**A.** 68.1%

**Q.** And the viability, T/C [11]?
**A.** 59.3%

**Q.** And the viability, T/C [12]?
**A.** 44.7%

**Q.** And the viability, T/C [13]?
**A.** 96.7%

**Q.** And the viability, T/C [14]?
**A.** 85.9%

**Q.** What about the viability, T/C [15] of the same compound?
**A.** 70%

**Q.** And the viability, T/C [16]?
**A.** 66.7%

**Q.** And the viability, T/C [17]?
**A.** 54.4%

**Q.** What about the viability, T/C [18] of the same compound?
**A.** 53.6%

**Q.** What about the viability, T/C [19] of the same compound?
**A.** 90%

**Q.** And the viability, T/C [20]?
**A.** 102%

**Q.** What about the viability, T/C [21] of the same compound?
**A.** 76.9%

**Q.** What about the viability, T/C [22] of the same compound?
**A.** 64.5%

**Q.** What about the viability, T/C [23] of the same compound?
**A.** 54.9%

**Q.** What about the viability, T/C [24] of the same compound?
**A.** 52.6%

**Q.** And the viability, T/C [25]?
**A.** 121%

**Q.** What about the viability, T/C [26] of the same compound?
**A.** 94.5%

**Q.** And the viability, T/C [27]?
**A.** 77.8%

**Q.** What about the viability, T/C [28] of the same compound?
**A.** 61.3%

**Q.** And the viability, T/C [29]?
**A.** 66.5%

**Q.** What about the viability, T/C [30] of the same compound?
**A.** 49.6%

**Q.** What about the viability, T/C [31] of the same compound?
**A.** 96.8%

**Q.** What about the viability, T/C [32] of the same compound?
**A.** 104%

**Q.** And the viability, T/C [33]?
**A.** 73%

**Q.** And the viability, T/C [34]?
**A.** 73.2%

**Q.** And the viability, T/C [35]?
**A.** 60%

**Q.** And the viability, T/C [36]?
**A.** 55.5%

**Q.** How did the IC50 (second compound 0.0316 µM) turn out when O=C(Nc1ccc(O)c(NS(=O)(=O)c2ccc(F)cc2)c1)c1ccc(-c2ccccc2)cc1 + Cc1cccc(N(C)C(=O)C2C(O)CCN2c2nc(C)cc(C(F)(F)F)c2C#N)c1 was run?
**A.** > 10 µM

**Q.** What about the IC50 (second compound 0.1 µM) of the same compound?
**A.** > 10 µM

**Q.** And the IC50 (second compound 0.316 µM)?
**A.** > 10 µM

**Q.** What about the IC50 (second compound 1 µM) of the same compound?
**A.** > 10 µM

**Q.** What about the IC50 (second compound 3.16 µM) of the same compound?
**A.** > 10 µM

**Q.** And the IC50 (second compound 10 µM)?
**A.** > 10 µM

**Q.** What about the viability, T/C [1] of the same compound?
**A.** 96.5%

**Q.** What about the viability, T/C [2] of the same compound?
**A.** 90.4%

**Q.** And the viability, T/C [3]?
**A.** 86.6%

**Q.** And the viability, T/C [4]?
**A.** 91.7%

**Q.** And the viability, T/C [5]?
**A.** 81.9%

**Q.** What about the viability, T/C [6] of the same compound?
**A.** 65.5%

**Q.** What about the viability, T/C [7] of the same compound?
**A.** 98.6%

**Q.** What about the viability, T/C [8] of the same compound?
**A.** 98%

**Q.** What about the viability, T/C [9] of the same compound?
**A.** 96.5%

**Q.** And the viability, T/C [10]?
**A.** 80%

**Q.** What about the viability, T/C [11] of the same compound?
**A.** 79.3%

**Q.** And the viability, T/C [12]?
**A.** 66.3%

**Q.** And the viability, T/C [13]?
**A.** 97.6%

**Q.** What about the viability, T/C [14] of the same compound?
**A.** 103%

**Q.** And the viability, T/C [15]?
**A.** 95.3%

**Q.** And the viability, T/C [16]?
**A.** 93.1%

**Q.** What about the viability, T/C [17] of the same compound?
**A.** 83.3%

**Q.** And the viability, T/C [18]?
**A.** 68.2%

**Q.** And the viability, T/C [19]?
**A.** 97.9%

**Q.** What about the viability, T/C [20] of the same compound?
**A.** 99.7%

**Q.** What about the viability, T/C [21] of the same compound?
**A.** 99.1%

**Q.** What about the viability, T/C [22] of the same compound?
**A.** 82.9%

**Q.** And the viability, T/C [23]?
**A.** 88.3%

**Q.** And the viability, T/C [24]?
**A.** 71.1%

**Q.** And the viability, T/C [25]?
**A.** 94.6%

**Q.** What about the viability, T/C [26] of the same compound?
**A.** 103%

**Q.** What about the viability, T/C [27] of the same compound?
**A.** 85.3%

**Q.** What about the viability, T/C [28] of the same compound?
**A.** 105%

**Q.** And the viability, T/C [29]?
**A.** 80.8%

**Q.** And the viability, T/C [30]?
**A.** 75.4%

**Q.** What about the viability, T/C [31] of the same compound?
**A.** 105%

**Q.** What about the viability, T/C [32] of the same compound?
**A.** 102%

**Q.** And the viability, T/C [33]?
**A.** 94.2%

**Q.** What about the viability, T/C [34] of the same compound?
**A.** 91%

**Q.** What about the viability, T/C [35] of the same compound?
**A.** 81.5%

**Q.** And the viability, T/C [36]?
**A.** 57.1%

**Q.** With O=c1[nH]cc(F)c(=O)[nH]1 + Cc1cccc(N(C)C(=O)C2C(O)CCN2c2nc(C)cc(C(F)(F)F)c2C#N)c1 as the compound, how does the IC50 (second compound 0.0316 µM) read?
**A.** > 10 µM

**Q.** And the IC50 (second compound 0.1 µM)?
**A.** > 10 µM

**Q.** And the IC50 (second compound 0.316 µM)?
**A.** > 10 µM

**Q.** And the IC50 (second compound 1 µM)?
**A.** > 10 µM

**Q.** And the IC50 (second compound 3.16 µM)?
**A.** > 10 µM

**Q.** What about the IC50 (second compound 10 µM) of the same compound?
**A.** > 10 µM

**Q.** What about the viability, T/C [1] of the same compound?
**A.** 97%

**Q.** And the viability, T/C [2]?
**A.** 104%

**Q.** What about the viability, T/C [3] of the same compound?
**A.** 94.7%

**Q.** What about the viability, T/C [4] of the same compound?
**A.** 89.7%

**Q.** And the viability, T/C [5]?
**A.** 79.4%

**Q.** What about the viability, T/C [6] of the same compound?
**A.** 57.8%

**Q.** And the viability, T/C [7]?
**A.** 93.3%

**Q.** What about the viability, T/C [8] of the same compound?
**A.** 97.2%

**Q.** And the viability, T/C [9]?
**A.** 89.3%

**Q.** And the viability, T/C [10]?
**A.** 102%

**Q.** What about the viability, T/C [11] of the same compound?
**A.** 75.9%

**Q.** What about the viability, T/C [12] of the same compound?
**A.** 62.3%

**Q.** What about the viability, T/C [13] of the same compound?
**A.** 104%

**Q.** And the viability, T/C [14]?
**A.** 107%

**Q.** What about the viability, T/C [15] of the same compound?
**A.** 100%

**Q.** And the viability, T/C [16]?
**A.** 109%

**Q.** What about the viability, T/C [17] of the same compound?
**A.** 75.1%

**Q.** What about the viability, T/C [18] of the same compound?
**A.** 64.8%

**Q.** And the viability, T/C [19]?
**A.** 101%

**Q.** What about the viability, T/C [20] of the same compound?
**A.** 105%

**Q.** And the viability, T/C [21]?
**A.** 94.6%

**Q.** What about the viability, T/C [22] of the same compound?
**A.** 88.2%

**Q.** And the viability, T/C [23]?
**A.** 70.7%

**Q.** And the viability, T/C [24]?
**A.** 66.4%

**Q.** And the viability, T/C [25]?
**A.** 101%

**Q.** And the viability, T/C [26]?
**A.** 90.1%

**Q.** What about the viability, T/C [27] of the same compound?
**A.** 104%

**Q.** What about the viability, T/C [28] of the same compound?
**A.** 85.6%

**Q.** And the viability, T/C [29]?
**A.** 79.5%

**Q.** And the viability, T/C [30]?
**A.** 65.7%

**Q.** What about the viability, T/C [31] of the same compound?
**A.** 115%

**Q.** What about the viability, T/C [32] of the same compound?
**A.** 102%

**Q.** And the viability, T/C [33]?
**A.** 93.8%

**Q.** And the viability, T/C [34]?
**A.** 89.9%

**Q.** What about the viability, T/C [35] of the same compound?
**A.** 78.6%

**Q.** And the viability, T/C [36]?
**A.** 74.6%
